Experimental data: patent publication US10519177B2, “Heterocyclic compounds and uses thereof” (Plexxikon Inc., priority 2013, dated 2019)
Where two headings read alike, the source gives them in different places.

Legend:
bromodomain = test: at least one of the bromodomain cell assays of Example 57; assay type: cell-based; details: read-out: IC50 in at least one of the bromodomain cell assays
MV-4-11 cells = test: Oncology cell growth assay MV-4-11 (CellTiter Glo); assay type: cell-based
Outline: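 MV-4-11 AML cells (MLL-AF4), 3000 per well, exposed to 8-point 1:3 compound titration from 10 μM top concentration (0.2% DMSO) for 72 h. Viability by CellTiter Glo luminescence, normalized to DMSO controls; pIC50 from four-parameter curve fit.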

BRD4-BD1 (44-164) = BRD4-BD1 (44-164) (Homo sapiens (Human), UniProt O60885); test: Alphascreen binding assay BRD4-BD1; details: BRD4(1) H4; read-out: Biochemical activity (IC50 μM) BRD4(1) H4
Outline: (§1)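 First, compound was preincubated 1 h at room temperature with the His-tagged BRD4 protein (BD1 44-164 or tandem BD12 1-477) and acetylated H4 peptide. Next, donor and acceptor beads were added at 7.5 μg/ml final. After 30 min, AlphaScreen emission was recorded.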

BRD4-BD12 (1-477) = BRD4-BD12 (1-477) (Homo sapiens (Human), UniProt O60885); test: Alphascreen binding assay BRD4-BD12; details: BRD4(1 2) H4; read-out: Biochemical activity (IC50 μM) BRD4(1 2) H4
Outline: as §1

[1] = at least one of the bromodomain cell assays described in Example 57
[2] = Homo sapiens, MV4-11, 72 h; read-out: Cell activity (IC50 μM) MV-4-11 3d-Growth

## Cc1noc(C)c1-c1cnc2c(-c3ccc(=O)n(C)c3)cn(C(C)c3ccccc3)c2c1 (centres unmarked) [P-0274, 5-[6-(3,5-dimethylisoxazol-4-yl)-1-(1-phenylethyl)pyrrolo[3,2-b]pyridin-3-yl]-1-methyl-pyridin-2-one]
bromodomain; [1]
  IC50: < 10 µM
MV-4-11 cells; [2]
  IC50: < 1 µM
BRD4-BD1 (44-164)
  IC50: < 1 µM
BRD4-BD12 (1-477)
  IC50: < 1 µM

## COc1ncc(-c2cn(C(C)c3ccccc3)c3cc(-c4c(C)noc4C)cnc23)cn1 (centres unmarked) [P-0275, 4-[3-(2-methoxypyrimidin-5-yl)-1-(1-phenylethyl)pyrrolo[3,2-b]pyridin-6-yl]-3,5-dimethyl-isoxazole]
bromodomain; [1]
  IC50: < 10 µM
MV-4-11 cells; [2]
  IC50: < 1 µM
BRD4-BD1 (44-164)
  IC50: < 1 µM
BRD4-BD12 (1-477)
  IC50: < 1 µM

## Cc1noc(C)c1-c1cnc2c(-c3ccc(N)nc3)cn(C(C)c3ccccc3)c2c1 (centres unmarked) [P-0276, 5-[6-(3,5-dimethylisoxazol-4-yl)-1-(1-phenylethyl)pyrrolo[3,2-b]pyridin-3-yl]pyridin-2-amine]
bromodomain; [1]
  IC50: < 10 µM
MV-4-11 cells; [2]
  IC50: < 1 µM
BRD4-BD1 (44-164)
  IC50: < 1 µM
BRD4-BD12 (1-477)
  IC50: < 1 µM

## Cc1noc(C)c1-c1cnc2c(-c3cnc(N)nc3)cn(C(C)c3ccccc3)c2c1 (centres unmarked) [P-0277, 5-[6-(3,5-dimethylisoxazol-4-yl)-1-(1-phenylethyl)pyrrolo[3,2-b]pyridin-3-yl]pyrimidin-2-amine]
bromodomain; [1]
  IC50: < 10 µM
MV-4-11 cells; [2]
  IC50: < 1 µM
BRD4-BD1 (44-164)
  IC50: < 1 µM
BRD4-BD12 (1-477)
  IC50: < 1 µM

## Cc1noc(C)c1-c1cnc2c(-c3cnc(C4CC4)nc3)cn(C(C)c3ccccc3)c2c1 (centres unmarked) [P-0278, 4-[3-(2-cyclopropylpyrimidin-5-yl)-1-(1-phenylethyl)pyrrolo[3,2-b]pyridin-6-yl]-3,5-dimethyl-isoxazole]
bromodomain; [1]
  IC50: < 10 µM
MV-4-11 cells; [2]
  IC50: < 1 µM
BRD4-BD1 (44-164)
  IC50: < 1 µM
BRD4-BD12 (1-477)
  IC50: < 1 µM

## Cc1noc(C)c1-c1cnc2c(-c3cnc(N)cn3)cn(C(C)c3ccccc3)c2c1 (centres unmarked) [P-0279, 5-[6-(3,5-dimethylisoxazol-4-yl)-1-(1-phenylethyl)pyrrolo[3,2-b]pyridin-3-yl]pyrazin-2-amine]
bromodomain; [1]
  IC50: < 10 µM
MV-4-11 cells; [2]
  IC50: < 1 µM
BRD4-BD1 (44-164)
  IC50: < 1 µM
BRD4-BD12 (1-477)
  IC50: < 1 µM

## Cc1noc(C)c1-c1cnc2c(Br)cn(C(CC#N)C3CCCC3)c2c1 (centres unmarked) [P-0280, 3-[3-bromo-6-(3,5-dimethylisoxazol-4-yl)pyrrolo[3,2-b]pyridin-1-yl]-3-cyclopentyl-propanenitrile]
bromodomain; [1]
  IC50: < 10 µM
MV-4-11 cells; [2]
  IC50: < 1 µM
BRD4-BD1 (44-164)
  IC50: < 1 µM
BRD4-BD12 (1-477)
  IC50: < 1 µM

## Cc1noc(C)c1-c1cnc2c(Br)cn(CC3CCC(F)(F)CC3)c2c1 [P-0281, 4-[3-bromo-1-[(4,4-difluorocyclohexyl)methyl]pyrrolo[3,2-b]pyridin-6-yl]-3,5-dimethyl-isoxazole]
bromodomain; [1]
  IC50: < 10 µM
MV-4-11 cells; [2]
  IC50: < 1 µM
BRD4-BD1 (44-164)
  IC50: < 1 µM
BRD4-BD12 (1-477)
  IC50: < 1 µM

## Cc1noc(C)c1-c1cnc2ccn(CC3CCC(F)(F)CC3)c2c1 [P-0282, 4-[1-[(4,4-difluorocyclohexyl)methyl]pyrrolo[3,2-b]pyridin-6-yl]-3,5-dimethyl-isoxazole]
bromodomain; [1]
  IC50: < 10 µM
MV-4-11 cells; [2]
  IC50: < 1 µM
BRD4-BD1 (44-164)
  IC50: < 1 µM
BRD4-BD12 (1-477)
  IC50: 1 to 10 µM

## Cc1oncc1-c1cnc2ccn(CC3CCC(F)(F)CC3)c2c1 [P-0283, 4-[1-[(4,4-difluorocyclohexyl)methyl]pyrrolo[3,2-b]pyridin-6-yl]-5-methyl-isoxazole]
bromodomain; [1]
  IC50: < 10 µM
MV-4-11 cells; [2]
  IC50: 1 to 10 µM
BRD4-BD1 (44-164)
  IC50: 1 to 10 µM
BRD4-BD12 (1-477)
  IC50: 1 to 10 µM

## Oc1ccc(-c2cnc3ccn(CC4CCC(F)(F)CC4)c3c2)cn1 [P-0284, 5-[1-[(4,4-difluorocyclohexyl)methyl]pyrrolo[3,2-b]pyridin-6-yl]pyridin-2-ol]
bromodomain; [1]
  IC50: < 10 µM
MV-4-11 cells; [2]
  IC50: 1 to 10 µM
BRD4-BD1 (44-164)
  IC50: < 1 µM
BRD4-BD12 (1-477)
  IC50: 1 to 10 µM

## Cc1n[nH]c(C)c1-c1cnc2ccn(CC3CCC(F)(F)CC3)c2c1 [P-0285, l-[(4,4-difluorocyclohexyl)methyl]-6-(3,5-dimethyl-1H-pyrazol-4-yl)pyrrolo[3,2-b]pyridine]
bromodomain; [1]
  IC50: < 10 µM
MV-4-11 cells; [2]
  IC50: 1 to 10 µM
BRD4-BD1 (44-164)
  IC50: 1 to 10 µM
BRD4-BD12 (1-477)
  IC50: 10 to 200 µM

## Cc1n[nH]c(C)c1-c1cn(C(C)c2ccccc2)c2cc(-c3c(C)noc3C)cnc12 (centres unmarked) [P-0287, 4-[3-(3,5-dimethyl-1H-pyrazol-4-yl)-1-(1-phenylethyl)pyrrolo[3,2-b]pyridin-6-yl]-3,5-dimethyl-isoxazole]
bromodomain; [1]
  IC50: < 10 µM
MV-4-11 cells; [2]
  IC50: < 1 µM
BRD4-BD1 (44-164)
  IC50: < 1 µM
BRD4-BD12 (1-477)
  IC50: < 1 µM

## Cc1noc(C)c1-c1cnc2c(C#C[Si](C)(C)C)cn(C(C)c3ccccc3)c2c1 (centres unmarked) [P-0288, 2-[6-(3,5-dimethylisoxazol-4-yl)-1-(1-phenylethyl)pyrrolo[3,2-b]pyridin-3-yl]ethynyl-trimethyl-silane]
bromodomain
  IC50: < 10 µM
MV-4-11 cells; Homo sapiens, MV4-11, 72 h, read-out: Cell activity (IC50 μM) MV-4-11 3d-Growth
  IC50: < 1 µM
BRD4-BD1 (44-164)
  IC50: < 1 µM
BRD4-BD12 (1-477)
  IC50: < 1 µM

## C#Cc1cn(C(C)c2ccccc2)c2cc(-c3c(C)noc3C)cnc12 (centres unmarked) [P-0289, 4-[3-ethynyl-1-(1-phenylethyl)pyrrolo[3,2-b]pyridin-6-yl]-3,5-dimethyl-isoxazole]
bromodomain; [1]
  IC50: < 10 µM
MV-4-11 cells; [2]
  IC50: < 1 µM
BRD4-BD1 (44-164)
  IC50: < 1 µM
BRD4-BD12 (1-477)
  IC50: < 1 µM

## Cc1noc(C)c1-c1cnc2c(Cl)cn(C(CC#N)C3CCCC3)c2c1 (centres unmarked) [P-0290, 3-[3-chloro-6-(3,5-dimethylisoxazol-4-yl)pyrrolo[3,2-b]pyridin-1-yl]-3-cyclopentyl-propanenitrile]
bromodomain; [1]
  IC50: < 10 µM
MV-4-11 cells; [2]
  IC50: < 1 µM
BRD4-BD1 (44-164)
  IC50: < 1 µM
BRD4-BD12 (1-477)
  IC50: < 1 µM

## Cc1nnn(C)c1-c1cnc2ccn(CC3CCC(F)(F)CC3)c2c1 [P-0291, l-[(4,4-difluorocyclohexyl)methyl]-6-(3,5-dimethyltriazol-4-yl)pyrrolo[3,2-b]pyridine]
bromodomain; [1]
  IC50: < 10 µM
MV-4-11 cells; [2]
  IC50: 1 to 10 µM
BRD4-BD1 (44-164)
  IC50: < 1 µM
BRD4-BD12 (1-477)
  IC50: 10 to 200 µM

## Cc1c(-c2cnc3ccn(CC4CCC(F)(F)CC4)c3c2)cnn1C [P-0293, l-[(4,4-difluorocyclohexyl)methyl]-6-(1,5-dimethylpyrazol-4-yl)pyrrolo[3,2-b]pyridine]
bromodomain; [1]
  IC50: < 10 µM
MV-4-11 cells; [2]
  IC50: 10 to 200 µM
BRD4-BD1 (44-164)
  IC50: 10 to 200 µM
BRD4-BD12 (1-477)
  IC50: 10 to 200 µM

## Cc1nc(C)c(-c2cnc3ccn(CC4CCC(F)(F)CC4)c3c2)s1 [P-0294, 5-[1-[(4,4-difluorocyclohexyl)methyl]pyrrolo[3,2-b]pyridin-6-yl]-2,4-dimethyl-thiazole]
bromodomain; [1]
  IC50: < 10 µM
MV-4-11 cells; [2]
  IC50: 1 to 10 µM
BRD4-BD1 (44-164)
  IC50: 10 to 200 µM
BRD4-BD12 (1-477)
  IC50: < 1 µM

## Cc1noc(C)c1-c1cnc2c(-c3cnn(C4COC4)c3)cn(CC3CCC(F)(F)CC3)c2c1 [P-0295, 4-[1-[(4,4-difluorocyclohexyl)methyl]-3-[1-(oxetan-3-yl)pyrazol-4-yl]pyrrolo[3,2-b]pyridin-6-yl]-3,5-dimethyl-isoxazole]
bromodomain; [1]
  IC50: < 10 µM
MV-4-11 cells; [2]
  IC50: < 1 µM
BRD4-BD1 (44-164)
  IC50: < 1 µM
BRD4-BD12 (1-477)
  IC50: < 1 µM

## Cc1noc(C)c1-c1cnc2c(-c3cnn(CCN4CCOCC4)c3)cn(CC3CCC(F)(F)CC3)c2c1 [P-0296, 4-[2-[4-[1-[(4,4-difluorocyclohexyl)methyl]-6-(3,5-dimethylisoxazol-4-yl)pyrrolo[3,2-b]pyridin-3-yl]pyrazol-1-yl]ethyl]morpholine]
bromodomain; [1]
  IC50: < 10 µM
MV-4-11 cells; [2]
  IC50: < 1 µM
BRD4-BD1 (44-164)
  IC50: < 1 µM
BRD4-BD12 (1-477)
  IC50: < 1 µM

## Cc1noc(C)c1-c1cnc2c(-c3cnn(CC(C)C)c3)cn(CC3CCC(F)(F)CC3)c2c1 [P-0297, 4-[1-[(4,4-difluorocyclohexyl)methyl]-3-(1-isobutylpyrazol-4-yl)pyrrolo[3,2-b]pyridin-6-yl]-3,5-dimethyl-isoxazole]
bromodomain; [1]
  IC50: < 10 µM
MV-4-11 cells; [2]
  IC50: < 1 µM
BRD4-BD1 (44-164)
  IC50: < 1 µM
BRD4-BD12 (1-477)
  IC50: < 1 µM

## Cc1noc(C)c1-c1cnc2c(-c3cnn(CCC#N)c3)cn(CC3CCC(F)(F)CC3)c2c1 [P-0298, 3-[4-[1-[(4,4-difluorocyclohexyl)methyl]-6-(3,5-dimethylisoxazol-4-yl)pyrrolo[3,2-b]pyridin-3-yl]pyrazol-1-yl]propanenitrile]
bromodomain; [1]
  IC50: < 10 µM
MV-4-11 cells; [2]
  IC50: < 1 µM
BRD4-BD1 (44-164)
  IC50: < 1 µM
BRD4-BD12 (1-477)
  IC50: < 1 µM

## Cc1noc(C)c1-c1cnc2c(-c3cnn(Cc4ccccc4)c3)cn(CC3CCC(F)(F)CC3)c2c1 [P-0299, 4-[3-(1-benzylpyrazol-4-yl)-1-[(4,4-difluorocyclohexyl)methyl]pyrrolo[3,2-b]pyridin-6-yl]-3,5-dimethyl-isoxazole]
bromodomain; [1]
  IC50: < 10 µM
MV-4-11 cells; [2]
  IC50: < 1 µM
BRD4-BD1 (44-164)
  IC50: < 1 µM
BRD4-BD12 (1-477)
  IC50: < 1 µM

## Cc1noc(C)c1-c1cnc2c(-c3c(C)nn(C)c3C)cn(C(C)c3ccccc3)c2c1 (centres unmarked) [P-0300, 3,5-dimethyl-4-[1-(1-phenylethyl)-3-(1,3,5-trimethylpyrazol-4-yl)pyrrolo[3,2-b]pyridin-6-yl]isoxazole]
bromodomain; [1]
  IC50: < 10 µM
MV-4-11 cells; [2]
  IC50: < 1 µM
BRD4-BD1 (44-164)
  IC50: < 1 µM
BRD4-BD12 (1-477)
  IC50: < 1 µM

## Cc1noc(C)c1-c1cnc2c(-c3cnco3)cn(C(C)c3ccccc3)c2c1 (centres unmarked) [P-0301, 3,5-dimethyl-4-[3-oxazol-5-yl-1-(1-phenylethyl)pyrrolo[3,2-b]pyridin-6-yl]isoxazole]
bromodomain; [1]
  IC50: < 10 µM
MV-4-11 cells; [2]
  IC50: < 1 µM
BRD4-BD1 (44-164)
  IC50: < 1 µM
BRD4-BD12 (1-477)
  IC50: < 1 µM
